Values joined by “and” are separate entries in the source; they are usually repeats but may differ in a detail not shown here. Identical values can stand only once.
What was measured:
[1] = Molar enthalpy of transition or fusion; settings: Crystal; DSC

CNC(=O)c1cccnc1 [N-methylnicotinamide]
Settings	vapor or sublimation pressure
329.17 K, Crystal, Calculated from knudsen effusion weight loss	0.000104 kPa and 0.000105 kPa
331.27 K, Crystal, Calculated from knudsen effusion weight loss	0.000132 kPa and 0.000134 kPa and 0.000131 kPa
333.15 K, Crystal, Calculated from knudsen effusion weight loss	0.000162 kPa and 0.00016 kPa and 0.000164 kPa
335.17 K, Crystal, Calculated from knudsen effusion weight loss	0.000211 kPa and 0.000209 kPa and 0.000206 kPa
337.27 K, Crystal, Calculated from knudsen effusion weight loss	0.000261 kPa and 0.000259 kPa
339.15 K, Crystal, Calculated from knudsen effusion weight loss	0.000328 kPa and 0.00032 kPa
341.16 K, Crystal, Calculated from knudsen effusion weight loss	0.000414 kPa and 0.000404 kPa
343.27 K, Crystal, Calculated from knudsen effusion weight loss	0.00051 kPa and 0.000505 kPa and 0.000513 kPa
345.13 K, Crystal, Calculated from knudsen effusion weight loss	0.000619 kPa and 0.000613 kPa and 0.000627 kPa
347.16 K, Crystal, Calculated from knudsen effusion weight loss	0.000784 kPa and 0.000776 kPa and 0.000771 kPa
347.78 K, Crystal, Closed cell (Static) method	0.00085 kPa
349.27 K, Crystal, Calculated from knudsen effusion weight loss	0.000971 kPa and 0.000964 kPa and 0.000957 kPa
349.78 K, Crystal, Closed cell (Static) method	0.00105 kPa
351.69 K, Crystal, Closed cell (Static) method	0.00127 kPa
353.72 K, Crystal, Closed cell (Static) method	0.00157 kPa
355.6 K, Crystal, Closed cell (Static) method	0.00191 kPa
357.66 K, Crystal, Closed cell (Static) method	0.00232 kPa
359.51 K, Crystal, Closed cell (Static) method	0.0028 kPa
361.62 K, Crystal, Closed cell (Static) method	0.00347 kPa
363.5 K, Crystal, Closed cell (Static) method	0.00416 kPa
365.47 K, Crystal, Closed cell (Static) method	0.00502 kPa
367.44 K, Crystal, Closed cell (Static) method	0.00604 kPa
369.43 K, Crystal, Closed cell (Static) method	0.00721 kPa
371.36 K, Crystal, Closed cell (Static) method	0.00857 kPa
373.27 K, Crystal, Closed cell (Static) method	0.01023 kPa
375.33 K, Metastable liquid, Closed cell (Static) method	0.01316 kPa
375.36 K, Crystal, Closed cell (Static) method	0.01234 kPa
377.25 K, Metastable liquid, Closed cell (Static) method	0.01508 kPa
377.39 K, Crystal, Closed cell (Static) method	0.01496 kPa
379.31 K, Metastable liquid, Closed cell (Static) method	0.01731 kPa
381.26 K, Closed cell (Static) method, Liquid	0.01991 kPa
383.29 K, Closed cell (Static) method, Liquid	0.0228 kPa
385.21 K, Closed cell (Static) method, Liquid	0.02592 kPa
387.24 K, Closed cell (Static) method, Liquid	0.02975 kPa
389.16 K, Closed cell (Static) method, Liquid	0.03359 kPa
391.17 K, Closed cell (Static) method, Liquid	0.03824 kPa
393.09 K, Closed cell (Static) method, Liquid	0.04305 kPa
395.12 K, Closed cell (Static) method, Liquid	0.04915 kPa
397.12 K, Closed cell (Static) method, Liquid	0.05526 kPa
399.02 K, Closed cell (Static) method, Liquid	0.06212 kPa
401.07 K, Closed cell (Static) method, Liquid	0.07023 kPa
403.01 K, Closed cell (Static) method, Liquid	0.07943 kPa
404.99 K, Closed cell (Static) method, Liquid	0.08886 kPa
406.95 K, Closed cell (Static) method, Liquid	0.09977 kPa
408.92 K, Closed cell (Static) method, Liquid	0.1117 kPa
410.86 K, Closed cell (Static) method, Liquid	0.1253 kPa
412.85 K, Closed cell (Static) method, Liquid	0.1398 kPa
414.81 K, Closed cell (Static) method, Liquid	0.1564 kPa
416.77 K, Closed cell (Static) method, Liquid	0.1735 kPa
418.72 K, Closed cell (Static) method, Liquid	0.194 kPa
420.68 K, Closed cell (Static) method, Liquid	0.2147 kPa
422.64 K, Closed cell (Static) method, Liquid	0.2384 kPa
424.61 K, Closed cell (Static) method, Liquid	0.2644 kPa
426.55 K, Closed cell (Static) method, Liquid	0.2952 kPa

Settings	Normal melting temperature [°C]
Crystal, DTA	106.0

Settings	Molar enthalpy of transition or fusion [kcal/mol]
[1]	5.26

Reference: the NIST ThermoML archive (doi:10.1016/j.jct.2014.11.001)
